Assay results reported in patent US10544112B2, “Identification of ebsulfur analogues with broad-spectrum antifungal activity” (priority 2017, dated 2020).
In brackets after ≈: the same amount, converted by molar mass.

Tests used:
[1] = system: C. albicans ATCC 64124 (strain B); assay: microbe, parasite or virus in culture; format: cell-based, Candida albicans; settings: strain B; compounds 1-4n and AmB; 48 h, RPMI 1640
Procedure: (§1) Fungal MIC determination experiments were performed using untreated 96-well plates (Corning). Cells were counted either by using a hemocytometer (Hausser Scientific, Horsham, Pa., USA) or by measuring optical density at attenuance of 600 nm (OD600) by using a Genesys 20 spectrophotometer (Thermo Scientific, Waltham, Mass., USA). Spectrophotometric and colorimetric measurements in 96-well plates were performed using a SpectraMax M5 spectrometer (Molecular Devices, Sunnyvale, Calif., USA).
(§2) Yeast strains Candida albicans ATCC 10231 (strain A), C. albicans ATCC 64124 (strain B), and C. albicans ATCC MYA-2876(S) (strain C) were kindly provided by Dr. Jon Y. Takemoto (Utah State University, Logan, UT, USA). C. albicans ATCC MYA-90819(R) (strain D), C. albicans ATCC MYA-2310(S) (strain E), C. albicans ATCC 1237(R) (strain F), C. albicans ATCC MYA-1003(R) (strain G), Candida glabrata ATCC 2001 (strain H), Candida krusei ATCC 6258 (strain I), and Candida parapsilosis ATCC 22019 (strain J) were obtained from the American Type Culture Collection (ATCC, Manassas, Va., USA). The (S) and (R) indicate that ATCC reports these strains to be susceptible (S) and resistant (R) to ITC and FLC. The filamentous fungal strains Aspergillus flavus ATCC MYA-3631 (strain K), and Aspergillus terreus ATCC MYA-3633 (strain M) were also obtained from the American Type Culture Collection (ATCC, Manassas, Va., USA). Aspergillus nidulans ATCC 38163 (strain L) was kindly provided by Dr. Jon S. Thorson (University of Kentucky, Lexington, Ky., USA), respectively. Yeast strains were cultured at 35° C. Filamentous fungal strains were cultured at 25° C. and the spores were harvested. All fungal strains were cultured in RPMI 1640 medium (catalog # R6504, Sigma-Aldrich Chemical Co., St. Louis, Mo.) buffered to pH 7.0 with 0.165 M morpholinepropanesulfonic acid (MOPS) buffer (Sigma-Aldrich Chemical Co.).
(§3) The MIC values against fungal strains were determined based on a previously published protocol. MIC values for ebsulfur (2a) analogues against fungal cells were evaluated in 96-well plates as described in the CLSI document M27-A3 with minor modifications. […] Therefore, potato dextrose broth (PDB) was used to grow the yeast inocula of all strains tested, which were later diluted in RPMI 1640 medium to perform determination of MIC values. […] The tested compounds (10 mg/mL) were diluted to the working stocks (500 μg/mL) by addition of DMSO. Two-fold serial dilution of the working stocks was prepared by addition of RPMI 1640 medium (100 μL) and cell suspension (100 μL) to 96-well microtiter plate to achieve final drug and inoculum concentrations ranging from 12.5-0.02 μg/mL and 5×10^3 CFU/mL, respectively. Plates were incubated for 48 h at 35° C. […]

[2] = system: C. albicans ATCC MYA-1237(R) (strain F); assay: microbe, parasite or virus in culture; format: cell-based, Candida albicans; settings: strain F; compounds 1-4n and AmB; 48 h, RPMI 1640
Procedure: as §1, §2, §3

[3] = system: C. albicans ATCC MYA-1003(R) (strain G); assay: microbe, parasite or virus in culture; format: cell-based, Candida albicans; settings: strain G; compounds 1-4n and AmB; 48 h, RPMI 1640
Procedure: as §1, §2, §3

[4] = system: C. albicans ATCC 90819(R) (strain D); assay: microbe, parasite or virus in culture; format: cell-based, Candida albicans; settings: strain D; compounds 1-4n and AmB; 48 h, RPMI 1640
Procedure: as §1, §2, §3

[5] = system: Candida glabrata ATCC 2001 (strain H); assay: Antifungal MIC determination (CLSI M27-A3, 96-well); format: cell-based; settings: strain H; for MIC-0: compounds 1-4n and AmB, 48 h, RPMI 1640
Procedure: as §1, §2, §3

[6] = system: Candida krusei ATCC 6258 (strain I); assay: as above; format: cell-based; settings: strain I; for MIC-0: compounds 1-4n and AmB, 48 h, RPMI 1640
Procedure: as §1, §2, §3

[7] = system: Candida albicans ATCC 10231 (strain A); assay: as above; format: cell-based; settings: strain A; compounds 1-4n and AmB; 48 h, RPMI 1640
Procedure: as §1, §2, §3

[8] = system: Candida parapsilosis ATCC 22019 (strain J); assay: as above; format: cell-based; settings: strain J; for MIC-0: compounds 1-4n and AmB, 48 h, RPMI 1640
Procedure: as §1, §2, §3

[9] = system: Aspergillus nidulans ATCC 38163 (strain L); assay: Antifungal MIC determination, filamentous fungi spores; format: cell-based; settings: strain L; spores
Procedure: as §1, §2
(§4) The MIC values against fungal strains were determined based on a previously published protocol. MIC values for ebsulfur (2a) analogues against fungal cells were evaluated in 96-well plates as described in the CLSI document M27-A3 with minor modifications. […] Therefore, potato dextrose broth (PDB) was used to grow the yeast inocula of all strains tested, which were later diluted in RPMI 1640 medium to perform determination of MIC values. […] The tested compounds (10 mg/mL) were diluted to the working stocks (500 μg/mL) by addition of DMSO. Two-fold serial dilution of the working stocks was prepared by addition of RPMI 1640 medium (100 μL) and cell suspension (100 μL) to 96-well microtiter plate to achieve final drug and inoculum concentrations ranging from 12.5-0.02 μg/mL and 5×10^3 CFU/mL, respectively. Plates were incubated for 48 h at 35° C.
(§5) MIC assays for the spore-forming filamentous fungi, such as strain A. flavus ATCC MYA-3631 (strain K), were performed in a similar fashion. The filamentous fungal strains were first cultured at 25° C. on potato dextrose agar (PDA) plates for 3-5 days or until confluent. Spores were collected by washing the surface of the agar plates with dd H2O (5 mL) and then isolated the spores by gravity filtration (the spores are H2O soluble). […] Researchers working with spores should wear a facemask to prevent spore inhalation.

[10] = system: Aspergillus flavus ATCC MYA-3631 (strain K); assay: as above; format: cell-based; settings: all compounds
Procedure: as §1, §2, §4, §5

[11] = system: Aspergillus terreus ATCC MYA-3633 (strain M); assay: as above; format: cell-based; settings: strain M, all compounds, spores
Procedure: as §1, §2, §4, §5

[12] = system: C. albicans ATCC MYA-2310(S) (strain E); assay: Antifungal MIC determination (CLSI M27-A3, 96-well); format: cell-based, Candida albicans; settings: strain E; compounds 1-4n and AmB; 48 h, RPMI 1640
Procedure: as §1, §2, §3

[13] = system: C. albicans ATCC MYA-2876(S) (strain C); assay: as above; format: cell-based, Candida albicans; settings: strain C; compounds 1-4n and AmB; 48 h, RPMI 1640
Procedure: as §1, §2, §3

Compound	MIC-0 [1]	MIC-0 [2]	MIC-0 [3]	MIC-0 [4]	MIC-0 [5]	MIC-0 [6]	MIC-0 [7]	MIC-0 [8]	MIC-0 [9]	MIC-0 [10]	MIC-0 [11]	MIC-0 [12]	MIC-0 [13]	MIC ([5]; Nakaseomyces glabratus, ATCC2001, azoles, read-out: MIC-2)	MIC ([6]; Pichia kudriavzevii, ATCC6258, azoles, read-out: MIC-2)	MIC ([8]; Lodderomyces parapsilosis, ATCC22019, azoles, read-out: MIC-2)	MIC ([10]; Aspergillus flavus, read-out: MIC-0)	MIC ([11]; Aspergillus terreus, read-out: MIC-0)
O=c1c2ccccc2sn1-c1cccc2ccccc12 [Compound 2l]	12.5 µg/mL (≈ 45.1 µM)	>12.5 µg/mL	6.25 µg/mL (≈ 22.5 µM)	3.13 µg/mL (≈ 11.3 µM)	12.5 µg/mL (≈ 45.1 µM)	6.25 µg/mL (≈ 22.5 µM)	6.25 µg/mL (≈ 22.5 µM)	12.5 µg/mL (≈ 45.1 µM)	12.5 µg/mL (≈ 45.1 µM)	12.5 µg/mL (≈ 45.1 µM)	12.5 µg/mL (≈ 45.1 µM)	>12.5 µg/mL	>12.5 µg/mL	–	–	–	–	–
CCC(C)n1ncn(-c2ccc(N3CCN(c4ccc(OCC5COC(Cn6cncn6)(c6ccc(Cl)cc6Cl)O5)cc4)CC3)cc2)c1=O (stereo not drawn) [ITC, itraconazole, reference compound]	–	–	–	–	–	–	–	–	–	–	–	–	–	7.8 µg/mL (≈ 11.1 µM)	0.48 µg/mL (≈ 0.68 µM)	0.12 µg/mL (≈ 0.17 µM)	0.48 µg/mL (≈ 0.68 µM)	0.975 µg/mL (≈ 1.38 µM)
CC(C)CCn1sc2ccccc2c1=O [Compound 3f]	0.78 µg/mL (≈ 3.52 µM)	0.78 µg/mL (≈ 3.52 µM)	1.56 µg/mL (≈ 7.05 µM)	0.78 µg/mL (≈ 3.52 µM)	1.56 µg/mL (≈ 7.05 µM)	0.39 µg/mL (≈ 1.76 µM)	1.56 µg/mL (≈ 7.05 µM)	1.56 µg/mL (≈ 7.05 µM)	0.02 µg/mL (≈ 0.0904 µM)	0.20 µg/mL (≈ 0.904 µM)	0.10 µg/mL (≈ 0.452 µM)	0.78 µg/mL (≈ 3.52 µM)	1.56 µg/mL (≈ 7.05 µM)	–	–	–	–	–
O=c1c2ccccc2sn1CCc1ccccc1 [Compound 3i]	1.56 µg/mL (≈ 6.11 µM)	1.56 µg/mL (≈ 6.11 µM)	1.56 µg/mL (≈ 6.11 µM)	1.56 µg/mL (≈ 6.11 µM)	1.56 µg/mL (≈ 6.11 µM)	1.56 µg/mL (≈ 6.11 µM)	1.56 µg/mL (≈ 6.11 µM)	1.56 µg/mL (≈ 6.11 µM)	0.20 µg/mL (≈ 0.783 µM)	0.78 µg/mL (≈ 3.05 µM)	0.20 µg/mL (≈ 0.783 µM)	1.56 µg/mL (≈ 6.11 µM)	1.56 µg/mL (≈ 6.11 µM)	–	–	–	–	–
O=c1c2ccccc2sn1-c1ccc(Br)cc1 [Compound 2d]	3.13 µg/mL (≈ 10.2 µM)	1.56 µg/mL (≈ 5.09 µM)	3.13 µg/mL (≈ 10.2 µM)	3.13 µg/mL (≈ 10.2 µM)	6.25 µg/mL (≈ 20.4 µM)	3.13 µg/mL (≈ 10.2 µM)	3.13 µg/mL (≈ 10.2 µM)	6.25 µg/mL (≈ 20.4 µM)	12.5 µg/mL (≈ 40.8 µM)	12.5 µg/mL (≈ 40.8 µM)	12.5 µg/mL (≈ 40.8 µM)	0.78 µg/mL (≈ 2.55 µM)	1.56 µg/mL (≈ 5.09 µM)	–	–	–	–	–
